Data as given in ChEMBL document CHEMBL1201862, “PubChem BioAssay data set” (2004).
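Values below derive from 48-hour exposures of cells grown in 96-well plates, with endpoints linearly interpolated between the two concentrations bracketing the appropriate inhibition level. The concentration for 50% growth inhibition is given as GI50.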 The source made the active and inactive calls. Cut-off read from the data, not from the text of the source: active = GI50 up to about 1.1 µM and inactive = higher.

How the values were obtained:
Test in all cases: DTP human tumour cell line panel, 48 h
MDA-MB-435 = system: MDA-MB-435
LOX IMVI = system: LOX IMVI
DU-145 = system: DU-145
EKVX = system: EKVX
HT-29 = system: HT-29
SR = system: SR
PC-3 = system: PC-3
SK-MEL-28 = system: SK-MEL-28
T47D = system: T47D
NCI-H23 = system: NCI-H23
MCF7 = system: MCF7
A498 = system: A498
U-251 = system: U-251
SW-620 = system: SW-620
SK-OV-3 = system: SK-OV-3
KM12 = system: KM12
SK-MEL-5 = system: SK-MEL-5
UACC-257 = system: UACC-257
SF-268 = system: SF-268
SN12C = system: SN12C

Row | SMILES | GI50 (MDA-MB-435) | GI50 (LOX IMVI) | GI50 (DU-145) | GI50 (EKVX) | GI50 (HT-29) | GI50 (SR) | GI50 (PC-3) | GI50 (SK-MEL-28) | GI50 (T47D) | GI50 (NCI-H23) | GI50 (MCF7) | GI50 (A498) | GI50 (U-251) | GI50 (SW-620) | GI50 (SK-OV-3) | GI50 (KM12) | GI50 (SK-MEL-5) | GI50 (UACC-257) | GI50 (SF-268) | GI50 (SN12C)
1 | CCOC(=O)c1csc(NC(=O)CN2CCOCC2)n1 | > 100 µM (inactive) | > 100 µM (inactive) | > 100 µM (inactive) | > 100 µM (inactive) | > 100 µM (inactive) | > 100 µM (inactive) | > 100 µM (inactive) | > 100 µM (inactive) | > 100 µM (inactive) | > 100 µM (inactive) | > 100 µM (inactive) | > 100 µM (inactive) | > 100 µM (inactive) | > 100 µM (inactive) | > 100 µM (inactive) | > 100 µM (inactive) | > 100 µM (inactive) | > 100 µM (inactive) | > 100 µM (inactive) | 
2 | N#Cc1c2c(c(Nc3ccc(F)cc3)n3c1nc1ccccc13)CCC2 | 3.25 µM (inactive) | 2.13 µM (inactive) | 3.61 µM (inactive) | 11.3 µM (inactive) | 1.87 µM (inactive) | 10.2 µM (inactive) | 5.14 µM (inactive) | 9.27 µM (inactive) | 7.8 µM (inactive) | 4.93 µM (inactive) | 3.32 µM (inactive) | 12.9 µM (inactive) | 2.84 µM (inactive) | 2.43 µM (inactive) | 9.93 µM (inactive) | 6.55 µM (inactive) | 3.54 µM (inactive) | 7.96 µM (inactive) | 3.55 µM (inactive) | 2.1 µM (inactive)
3 | COc1ccc(/C=C/C(=O)Oc2cc(O)cc(O)c2)cc1 | 61.9 µM (inactive) | 20.1 µM (inactive) | 56.6 µM (inactive) | 56.2 µM (inactive) | 29.4 µM (inactive) | 25.1 µM (inactive) | 43.6 µM (inactive) | > 100 µM (inactive) | 43.5 µM (inactive) | 42.1 µM (inactive) | 19.5 µM (inactive) | > 100 µM (inactive) | 24.6 µM (inactive) | 41.1 µM (inactive) | > 100 µM (inactive) | 14.2 µM (inactive) | 52.8 µM (inactive) | > 100 µM (inactive) | 26.2 µM (inactive) | 36.4 µM (inactive)
4 | Cn1c(=O)c2c(nc(Nc3ccc(Cl)cc3)n3c(=O)n(-c4ccccc4)c(=O)n23)n(C)c1=O | > 100 µM (inactive) | > 100 µM (inactive) | > 100 µM (inactive) | > 100 µM (inactive) | > 100 µM (inactive) | > 100 µM (inactive) | > 100 µM (inactive) | > 100 µM (inactive) | > 100 µM (inactive) | > 100 µM (inactive) | > 100 µM (inactive) | > 100 µM (inactive) | > 100 µM (inactive) | > 100 µM (inactive) |  | > 100 µM (inactive) | > 100 µM (inactive) | > 100 µM (inactive) | > 100 µM (inactive) | > 100 µM (inactive)
5 | Cc1ccc2c(c1)C=CC(C#N)N2C(=O)Oc1ccccc1 (stereo not drawn) | 14.5 µM (inactive) | 20.6 µM (inactive) | 17.9 µM (inactive) | 18.1 µM (inactive) | 18.7 µM (inactive) | 19.4 µM (inactive) | 26.3 µM (inactive) | 77.8 µM (inactive) | 20.8 µM (inactive) | 19.5 µM (inactive) | 19.7 µM (inactive) | 20.6 µM (inactive) | 23.7 µM (inactive) | 30.5 µM (inactive) |  | 17.1 µM (inactive) | 24.3 µM (inactive) | 39.8 µM (inactive) | 29.9 µM (inactive) | 35.8 µM (inactive)
6 | COc1cc2c(cc1O)C(=O)O[C@@H]1CC=C3CCN(C)[C@H]3[C@H]21 | > 25 µM (inactive) |  | > 25 µM (inactive) | > 25 µM (inactive) | > 25 µM (inactive) | > 25 µM (inactive) | > 25 µM (inactive) | > 25 µM (inactive) | > 25 µM (inactive) | > 25 µM (inactive) | > 25 µM (inactive) | > 25 µM (inactive) | > 25 µM (inactive) | > 25 µM (inactive) | > 25 µM (inactive) | > 25 µM (inactive) | > 25 µM (inactive) | > 25 µM (inactive) | > 25 µM (inactive) | > 25 µM (inactive)
7 | O=C1c2ccccc2S(=O)(=O)c2c1cccc2[N+](=O)[O-] | 1.59 µM (inactive) | 2.14 µM (inactive) | 4.79 µM (inactive) | 3.35 µM (inactive) | 2.57 µM (inactive) | 0.902 µM (active) | 3.01 µM (inactive) | 2 µM (inactive) | 2.37 µM (inactive) | 3.5 µM (inactive) | 1.25 µM (inactive) | 4.66 µM (inactive) | 2.65 µM (inactive) | 1.61 µM (inactive) | > 6.62 µM (inactive) | 2.15 µM (inactive) | 0.643 µM (active) | 1.87 µM (inactive) | 3.05 µM (inactive) | 2.2 µM (inactive)
8 | COC(=O)/C=C(C)/C=C\COC1CCCCO1 (stereo not drawn) | > 100 µM (inactive) | > 100 µM (inactive) | > 100 µM (inactive) | > 100 µM (inactive) |  | > 100 µM (inactive) | > 100 µM (inactive) | > 100 µM (inactive) | > 100 µM (inactive) | > 100 µM (inactive) | > 100 µM (inactive) | > 100 µM (inactive) | > 100 µM (inactive) | > 100 µM (inactive) | > 100 µM (inactive) | > 100 µM (inactive) | > 100 µM (inactive) | > 100 µM (inactive) | > 100 µM (inactive) | > 100 µM (inactive)
9 | Nc1c(-c2ccccc2)c2ccc([N+](=O)[O-])cc2c(=O)n1-c1cccc(C(=O)O)c1 | > 100 µM (inactive) | > 100 µM (inactive) | > 100 µM (inactive) | > 100 µM (inactive) | > 100 µM (inactive) | > 100 µM (inactive) | > 100 µM (inactive) | > 100 µM (inactive) | > 100 µM (inactive) | > 100 µM (inactive) | > 100 µM (inactive) | > 100 µM (inactive) | > 100 µM (inactive) | > 100 µM (inactive) | > 100 µM (inactive) | > 100 µM (inactive) | > 100 µM (inactive) | > 100 µM (inactive) | > 100 µM (inactive) | 
10 | O=c1[nH]nc(Cc2ccccc2)n1CCCl | > 100 µM (inactive) | > 100 µM (inactive) | > 100 µM (inactive) | > 100 µM (inactive) | > 100 µM (inactive) | > 100 µM (inactive) | > 100 µM (inactive) | > 100 µM (inactive) | > 100 µM (inactive) | > 100 µM (inactive) | > 100 µM (inactive) | > 100 µM (inactive) | > 100 µM (inactive) | > 100 µM (inactive) | > 100 µM (inactive) | > 100 µM (inactive) |  |  | > 100 µM (inactive) | > 100 µM (inactive)
11 | CC1(C)[C@@H]2CC[C@@]1(C)CN(CCC[N+](C)(C)C)C2 | > 100 µM (inactive) | > 100 µM (inactive) | > 100 µM (inactive) | > 100 µM (inactive) | > 100 µM (inactive) | > 100 µM (inactive) | > 100 µM (inactive) | > 100 µM (inactive) | > 100 µM (inactive) | > 100 µM (inactive) | > 100 µM (inactive) | > 100 µM (inactive) | > 100 µM (inactive) | > 100 µM (inactive) | > 100 µM (inactive) | > 100 µM (inactive) | > 100 µM (inactive) | > 100 µM (inactive) | > 100 µM (inactive) | > 100 µM (inactive)
12 | S=C(Nc1ccccc1)c1ccc(CN2CCCCC2)s1 | 18.1 µM (inactive) | 17.7 µM (inactive) | 60.1 µM (inactive) | 41.8 µM (inactive) | 11.3 µM (inactive) | 15.6 µM (inactive) | 29.7 µM (inactive) | 16.2 µM (inactive) | 26.4 µM (inactive) | 19.4 µM (inactive) | 18 µM (inactive) | 18.4 µM (inactive) | 19 µM (inactive) | 16.4 µM (inactive) | 19.5 µM (inactive) | 17.8 µM (inactive) | 16.3 µM (inactive) | 19.4 µM (inactive) | 26.4 µM (inactive) | 
13 | CCC(=O)C(CCN1CCC(N2C(=O)C(CCC#N)c3ccccc32)CC1)(c1ccccc1)c1ccccc1 (stereo not drawn) | 4.85 µM (inactive) | 12.8 µM (inactive) | 12.2 µM (inactive) |  | 3.4 µM (inactive) | 0.0486 µM (active) | 18.5 µM (inactive) | 18.7 µM (inactive) | 7.85 µM (inactive) | 18.2 µM (inactive) | 11.5 µM (inactive) | 23.2 µM (inactive) | 14.6 µM (inactive) | 11.8 µM (inactive) | 15.5 µM (inactive) | 13.4 µM (inactive) | 10.3 µM (inactive) | 13 µM (inactive) | 16.1 µM (inactive) | 18 µM (inactive)
14 | c1ccc(-c2nc3ccccc3n3c(CN4CCCCC4)nnc23)cc1 | > 100 µM (inactive) | > 100 µM (inactive) | > 100 µM (inactive) | 93.5 µM (inactive) | > 100 µM (inactive) | > 100 µM (inactive) | > 100 µM (inactive) | > 100 µM (inactive) | 54.5 µM (inactive) |  | > 100 µM (inactive) | 60 µM (inactive) | 47 µM (inactive) | > 100 µM (inactive) | 47.3 µM (inactive) |  | > 100 µM (inactive) | > 100 µM (inactive) | 49.5 µM (inactive) | > 100 µM (inactive)
